From patent publication US11866412B1, “Acridin-9-one compounds as antibacterial agents” (KING FAISAL UNIVERSITY, priority 2023, dated 2024) come the findings set out here.

Converted amounts (≈) assume the structure as drawn. Like-named read-outs stand apart in the source and are kept apart here.

The subject of test [1] is Staphylococcus aureus ATCC 29213. In words: in vitro antibacterial activity, dilution MIC (CLSI M07-A10). The conditions noted are these: ATCC29213. Format: cell-based.
Test [2] deals with Staphylococcus aureus ATCC BAA-1556 (MERSA resistant). Described as above. The conditions noted are these: ATCCBAA1556. Format: cell-based.
Test [3] concerns Staphylococcus epidermidis. The description is as above. Format: cell-based.
Test [4] deals with Bacillus subtilis MTCC 441. Described as above. Format: cell-based. The conditions noted are these: MTCC441.
For test [5], the system named is Enterococcus faecium ATCC 35667. The description is as above. Format: cell-based. The following applies: ATCC35667.
For test [6], the system named is Enterococcus faecium ATCC 51559 (VRE resistant). The description is as above. Format: cell-based.
In test [7] the test system is Klebsiella pneumonia MTCC 618. Described as above. Format: cell-based. The conditions noted are these: Klebsiella pneumoniae, MTCC618.
Test [8] deals with Escherichia coli MTCC 443. Described as above. Format: cell-based. The following applies: MTCC443.
Test [9] deals with Pseudomonas aeruginosa MTCC 741. Described as above. Format: cell-based. The following applies: MTCC741.
The subject of test [10] is H37Rv type of M. tuberculosis strains. In words: antitubercular alamar blue microplate MIC assay. Format: cell-based. The following applies: mycobacterium tuberculosis H37Rv strain, read-out: anti-mycobacterial activity (MIC). Background: The colour change of resazurin is a common sign of viable cells or microbes.
A further test has as its target T1, DNA gyrase from E. coli (Escherichia coli, UniProt P0AES4+P0AES6).
T1 construct: purchased Inspiralis
The test can be described thus: Inhibitory activities on E. coli DNA Gyrase (Inspiralis assay). Format: biochemical. As to the method: First, the plates were rehydrated with buffer (20 mM Tris-HCl with pH 7.6, 0.01% w/v BSA, 0.05% v/v Tween 20, 137 mM NaCl) and the biotinylated oligonucleotide was then immobilized. After washing off the unbound oligonucleotide, the enzyme test was performed. […] Reaction solutions were incubated at 37° C. for 30 min. After that, the TF buffer (50 mM NaOAc with pH 5.0, 50 mM NaCl and 50 mM MgCl2) was added to terminate the enzymatic reaction. After additional incubation for 30 min at rt, during which biotinoligonucleotide-plasmid triplex was formed, the unbound plasmid was washed off using TF buffer and SybrGOLD in T10 buffer (10 mM Tris HCl with pH 8.0 and 1 mM EDTA) was added. The fluorescence was measured with a microplate reader (BioTek Synergy H4, excitation: 485 nm, emission: 535 nm). Initial screening was done at 100 or 10 μM concentration of inhibitors. […] GraphPad Prism software was used to calculate the IC50 values. The result is given as the average value of three independent measurements.

T1 sequence (P0AES4 whole entry, one chain of several): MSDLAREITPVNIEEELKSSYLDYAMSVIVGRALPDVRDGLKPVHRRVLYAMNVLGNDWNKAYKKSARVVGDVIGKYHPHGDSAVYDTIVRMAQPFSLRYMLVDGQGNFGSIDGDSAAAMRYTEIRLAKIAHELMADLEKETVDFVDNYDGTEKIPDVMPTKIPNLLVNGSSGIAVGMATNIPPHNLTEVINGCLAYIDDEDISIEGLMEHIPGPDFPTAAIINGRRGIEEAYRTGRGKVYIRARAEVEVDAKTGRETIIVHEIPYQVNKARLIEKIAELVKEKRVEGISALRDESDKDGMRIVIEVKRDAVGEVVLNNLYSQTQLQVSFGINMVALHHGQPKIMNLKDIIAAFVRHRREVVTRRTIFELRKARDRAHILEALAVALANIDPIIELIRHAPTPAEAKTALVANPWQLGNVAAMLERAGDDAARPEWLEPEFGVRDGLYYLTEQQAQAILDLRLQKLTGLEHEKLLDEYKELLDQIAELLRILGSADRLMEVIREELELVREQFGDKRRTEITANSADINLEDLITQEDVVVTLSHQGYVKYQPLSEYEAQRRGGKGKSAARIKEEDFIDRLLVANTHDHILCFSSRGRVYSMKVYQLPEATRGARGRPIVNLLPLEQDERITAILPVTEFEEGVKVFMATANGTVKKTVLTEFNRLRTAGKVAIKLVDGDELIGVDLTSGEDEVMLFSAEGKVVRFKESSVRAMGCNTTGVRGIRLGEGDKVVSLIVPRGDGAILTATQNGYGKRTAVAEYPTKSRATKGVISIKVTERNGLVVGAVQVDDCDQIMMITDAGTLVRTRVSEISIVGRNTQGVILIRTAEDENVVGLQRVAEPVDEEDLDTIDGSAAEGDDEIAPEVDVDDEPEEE

In general, MIC refers to the smallest concentration in the dilution series that meets the test's criterion for growth inhibition. The term IC50 denotes the point on the concentration scale where inhibition reaches its midpoint. Consider `CCCCCN(C)Cc1ccc(C(=O)O)cc1-c1cnc2[nH]c3c(NC)cc(F)cc3c(=O)c2c1` [Compound 8, 3-(7-fluoro-9-(methylamino)-5-oxo-5,10-dihydrobenzo[b][1,8]naphthyridin-3-yl)-4-((methyl(pentyl)amino)methyl)benzoic acid], for which the MIC in test [1] was found to be 0.75 µg/mL (≈ 1.57 µM); in test [2] it was 0.75 µg/mL (≈ 1.57 µM); in test [3], 1 µg/mL (≈ 2.1 µM); in test [4], 0.5 µg/mL (≈ 1.05 µM); in test [5], 0.1 µg/mL (≈ 0.21 µM); in test [6], 0.1 µg/mL (≈ 0.21 µM). Moreover, the MIC in test [7] (Klebsiella pneumonia MTCC 618, read-out: MIC) worked out at 0.75 µg/mL (≈ 1.57 µM); in test [8] it was 2 µg/mL (≈ 4.2 µM); in [9] it was 0.5 µg/mL (≈ 1.05 µM); in test [10], 4 µg/mL (≈ 8.39 µM). The IC50 on DNA gyrase from E. coli was found to be 11 nM.
On to `CN[C@H](CC(C)C)C(=O)N[C@H]1C(=O)N[C@@H](CC(N)=O)C(=O)N[C@H]2C(=O)N[C@H]3C(=O)N[C@H](C(=O)N[C@H](C(=O)O)c4cc(O)cc(O)c4-c4cc3ccc4O)[C@H](O)c3ccc(c(Cl)c3)Oc3cc2cc(c3O[C@@H]2O[C@H](CO)[C@@H](O)[C@H](O)[C@H]2O[C@H]2C[C@](C)(N)[C@H](O)[C@H](C)O2)Oc2ccc(cc2Cl)[C@H]1O` [Vancomycin, reference compound], for which the MIC in test [7] was greater than 128 µg/mL.
